From patent publication US20130117887A1, “Herbicide resistant Camelina Sativa” (Agragen Inc, priority 2010, published 2013)

What was measured:
[1] = system: transgenic Camelina sativa lines bearing P197S-W574L mutated ALS gene; assay: Seedling herbicide assay, transgenic lines bearing double (PW) mutated ALS gene; format: in vivo; settings: for Effect as compared to control / Highest surviving concentration: Blane Creek, T3, P197S-W574L
Experimental: Blane Creek. The seedlings were grown one week on the various concentrations of herbicides MSU, CSU and IMI. The concentrations are shown in mg/l. Control plate has no herbicide in the growth media.
(§1) Seedlings of the developed transgenic lines of Camelina sativa, cultivars Blane Creek and Calena second (T1) and fourth (T3) generations were exposed to various concentration of three herbicides: imidazolinone (IMI), chlorsulfuron (CSU) and metsulfuron (MSU). Resistance of the transgenic lines was compared to control non-transgenic seedlings of C. sativa cv. Blane Creek.
(§2) Seeds were sterilized in 2% Na-hypocloride and placed on wet filter paper in sterile conditions to allow germination. On the next day well-germinated seedlings were transferred on Petri dishes containing MS (Murasige-Scoog) 0.7% agar (without sucrose or hormones). Each dish contained one from the three herbicides in particular concentration (0.0001, 0.001, 0.01, 0.1, 1.0, 10, 100 mg/l). After one week of cultivation in vitro (+25° C./+18° C.; light/dark) the seedlings were photographed (as shown on the FIGS. 16A-16F). The highest survival concentration was found for each transgenic line and for each herbicide and compared to the non-transgenic control.

[2] = system: non-transgenic seedlings of C. sativa cv. Blane Creek (wild type); assay: Seedling herbicide assay, highest survival concentration, non-transgenic control; format: in vivo, Camelina sativa; settings: for Highest surviving concentration: seedlings one week on MS agar
From the text: as §1, §2

[3] = system: transgenic Camelina sativa lines bearing A122T-P197S-W574L mutated ALS gene; assay: Seedling herbicide assay, transgenic lines bearing triple (APW) mutated ALS gene; format: in vivo; settings: Blane Creek, T3, A122T-P197S-W574L
Experimental: Blane Creek. The seedlings were grown one week on various concentrations of herbicides MSU, CSU and IMI. The concentrations are shown in mg/l. Control plate has no herbicide in the grown media.
as §1, §2

[4] = system: transgenic C. sativa cv. Celine lines VK6-A1-No24 and VK6-A1-No26 (35S promoter, ALS W574 mutant); assay: In vitro leaf segment test, transgenic lines; format: cell-based, Camelina sativa; settings: media with 0.001, 0.01, 0.1, 1.0 mg/l herbicide, FIG. 13
From the text: (§3) FIG. 13 In vitro leaf segment test of two transgenic C. sativa cv. Celine lines VK6-A1-No24 (shown as 24 on Petri dishes) and VK6-Al-No26 (shown as 26 on Petri dishes). As a control, leaf segments of herbicide resistant natural mutant of Camelina microcarpa (C.m.) and leaf segments of susceptible C. sativa (C.s.) were used. Leaf segments of transgenic plants are resistant to the herbicides, while non-transgenic Camelina sativa is susceptible. The media in Petri dishes contains herbicides in various concentrations from 0 mg/l in control plate to 0.001, 0.01, 0.1, 1.0 mg/l of IMI, MSU and CSU.
(§4) Celine lines VK6-A1-No24 and VK6-A1-No26 transformed with Al construct (35S promoter—ALS W574 mutant—35S terminator). As controls, we used leaf segments of herbicide resistant natural ALS mutant of Camelina microcarpa that has broad resistance to class-2 herbicides and leaf segments of susceptible Camelina sativa. From the figure it can be clearly seen that leaf segments of transgenic plants are resistant to the herbicides, while non-transgenic Camelina sativa is susceptible.

[5] = system: transgenic Camelina sativa lines bearing A122T mutated ALS gene; assay: Seedling herbicide assay, transgenic lines bearing A-mutated (A122T) ALS gene; format: in vivo; settings: for Effect as compared to control / Highest surviving concentration: T1, A122T
Experimental: Calena, as well as A9.1 (VK14A9.1) and A9.2 (VK14A9.4.2) of the second generation (T1) Camelina sativa v. Blane Creek. The seedlings were grown one week on the various concentrations of herbicides MSU, CSU and IMI. The concentrations are shown in mg/l. Control plate has no herbicide in the grown media.
as §1, §2

[6] = system: transgenic Camelina sativa lines bearing W574L mutated ALS gene; assay: Seedling herbicide assay, transgenic lines bearing W-mutated (W574L) ALS gene; format: in vivo; settings: for Effect as compared to control / Highest surviving concentration: Blane Creek
Experimental: Blane Creek and ALS23.3 (VK10A2.3) of the […] (T3) of Camelina sativa v. Blane Creek. The seedlings were grown one week on various concentrations of herbicides MSU, CSU and IMI. The concentrations are shown in mg/l. Control plate has no herbicide in the grown media.
as §1, §2

[7] = system: transgenic Camelina sativa lines bearing P197S mutated ALS gene; assay: Seedling herbicide assay, transgenic lines bearing P-mutated (P197S) ALS gene; format: in vivo; settings: for Effect as compared to control / Highest surviving concentration: T1, P197S
Experimental: Calena and A 10 (VK14A10.16) of the second generation (T1) Camelina sativa c. Blane Creek. The seedlings were grown one week on various concentrations of herbicides MSU, CSU and IMI. The concentrations are shown in mg/l.
as §1, §2

[8] = system: non-transgenic susceptible Camelina sativa leaf segments; assay: In vitro leaf segment test, non-transgenic control; format: cell-based; settings: media with 0.001, 0.01, 0.1, 1.0 mg/l herbicide, FIG. 13
From the text: as §3, §4

[9] = line A9.1 (VK14A9.1), Blane Creek
[10] = line A9.2 (VK14A9.4.2), Blane Creek
[11] = line ALS23.3 (VK10A2.3), T3, W574L
[12] = line A10 (VK14A10.16), Blane Creek

| Compound | Effect as compared to control ([1]; line ALS7.3 (KK24A14.4)) | Highest surviving concentration ([1]; line ALS7.3 (KK24A14.4)) | Effect as compared to control ([1]; line ALS8.3 (KK18A8)) | Highest surviving concentration ([1]; line ALS8.3 (KK18A8)) | Effect as compared to control [2] | Highest surviving concentration [2] | Effect as compared to control ([3]; line ALS 11.3 (VK10A5.3)) | Highest surviving concentration ([3]; line ALS 11.3 (VK10A5.3)) | Effect as compared to control ([3]; line ALS22.3 (VK13A15.12)) | Highest surviving concentration ([3]; line ALS22.3 (VK13A15.12)) | response of leaf segments to the herbicides [4] | Effect as compared to control ([5]; line A3 (VK9A3.4.1), Calena) | Highest surviving concentration ([5]; line A3 (VK9A3.4.1), Calena) | Effect as compared to control [5, 9] | Highest surviving concentration [5, 9] | Effect as compared to control [5, 10] | Highest surviving concentration [5, 10] | spectrum of resistance of mutation W [6] | Effect as compared to control ([6]; line A2 (VK10A2.2), T1, W574L) | Highest surviving concentration ([6]; line A2 (VK10A2.2), T1, W574L) | also measured |
| --- | --- | --- | --- | --- | --- | --- | --- | --- | --- | --- | --- | --- | --- | --- | --- | --- | --- | --- | --- | --- | --- |
| COc1nc(C)nc(NC(=O)NS(=O)(=O)c2ccccc2Cl)n1 [CSU, Chlorsulfuron] | 10 000 | 10 mg/L | 10 000 | 10 mg/L | 1 | 0.001 mg/L | 10 000 | 10 mg/L | 10 000 | 10 mg/L | resistant | 10 | 0.01 mg/L | 1 | 0.001 mg/L | 10 | 0.01 mg/L | good resistance | 10 000 | 10 mg/L | Effect as compared to control [6, 11]: 1 000; Highest surviving concentration [6, 11]: 1.0 mg/L; spectrum of resistance of mutation P [7]: specifically increased resistance; Effect as compared to control ([7]; line A4 (VK9A4.4.2), Calena): 10 000; Highest surviving concentration ([7]; line A4 (VK9A4.4.2), Calena): 10 mg/L; Effect as compared to control [7, 12]: 1 000; Highest surviving concentration [7, 12]: 1.0 mg/L; response of leaf segments to the herbicides [8]: susceptible |
| COCc1cnc(C2=NC(C)(C(C)C)C(=O)N2)c(C(=O)O)c1 (stereo not drawn) [IMI, Imazamox] | 1 000 | 10 mg/L | 1 000 | 10 mg/L | 1 | 0.01 mg/L | 1 000 | 10 mg/L | 1 000 | 10 mg/L | resistant | 1 000 | 10 mg/L | 100 | 1.0 mg/L | 1 000 | 10 mg/L | good resistance | 10 000 | 100 mg/L | spectrum of resistance of mutation A [5]: specifically increased resistance; Effect as compared to control [6, 11]: 1 000; Highest surviving concentration [6, 11]: 10 mg/L; Effect as compared to control ([7]; line A4 (VK9A4.4.2), Calena): 10; Highest surviving concentration ([7]; line A4 (VK9A4.4.2), Calena): 0.1 mg/L; Effect as compared to control [7, 12]: 10; Highest surviving concentration [7, 12]: 0.1 mg/L; response of leaf segments to the herbicides [8]: susceptible |
| COC(=O)c1ccccc1S(=O)(=O)NC(=O)Nc1nc(C)nc(OC)n1 [MSU, Metsulfuron-methyl] | 1 000 | 1.0 mg/L | 1 000 | 1.0 mg/L | 1 | 0.001 mg/L | 100 | 0.1 mg/L | 1 000 | 1.0 mg/L | resistant | 10 | 0.01 mg/L | 1 | 0.001 mg/L | 1 | 0.001 mg/L | less effective | 100 | 0.1 mg/L | increase in resistance as compared to non-transgenic control ([1]; lines bearing double mutations PW): 1 000; Effect as compared to control [6, 11]: 100; Highest surviving concentration [6, 11]: 0.1 mg/L; Effect as compared to control ([7]; line A4 (VK9A4.4.2), Calena): 10; Highest surviving concentration ([7]; line A4 (VK9A4.4.2), Calena): 0.01 mg/L; Effect as compared to control [7, 12]: 10; Highest surviving concentration [7, 12]: 0.01 mg/L; response of leaf segments to the herbicides [8]: susceptible |
